Earlier results on one compound are cited in patent US20080014261A1, “Non-narcotic biphasic release compositions and methods for treatment of coughing, sneezing, rhinorrhea, and/or nasal obstruction” (priority 2006, published 2008).

The conditions of the data set: in vivo.

In the case of `COc1ccccc1OCC(O)CO` (stereo not shown) [Guaifenesin, 3-(2-methoxyphenoxy)-1,2 propanediol], the plasma half life result was “one”.
